Columns and labels:
[1] = system: Corn leaf discs (variety Multitop); test: Dark induced senescence of corn leaf; details: Zea mays, foliar, 192 h; leaf discs in the dark, 23° C., 75% humidity, 8 days, 0.5% DMSO; read-out: IC50 (concentration at which 50% senescence was achieved)
Procedure: It is known that strigolactones regulate (accelerate) leaf senescence, potentially through D14 receptor signaling. It is also known that senescence is an important process allowing reallocation of nutrients. Compounds of formula (I) were tested in a corn leaf dark induced senescence assay and compared to untreated control.
Corn plants of variety Multitop were grown in a greenhouse with relative 75% humidity and at 23-25° C. for 6 weeks. 1.4 cm diameter leaf discs were placed into 24-well plates containing a test compounds in a concentration gradient (100 μM-0.0001 μM) at a final concentration of 0.5% DMSO. Each concentration was tested in 12 replicates. Plates were sealed with seal foil. The foil was pierced to provide gas exchange in each well. The plates were placed into the completely dark climatic chamber. Plates were incubated in the chamber with 75% humidity and at 23° C. for 8 days. On days 0, 5, 6, 7 and 8 photographs were taken of each plate, and image analysis conducted with a macro developed using the ImageJ software. The image analysis was used to determine the concentration at which 50% senescence was achieved (IC50). The lower the value, the higher senescence induction potency.

[2] = system: Corn seeds (var. NK Falkone); test: Corn seed germination under cold stress conditions; assay type: in vivo; details: Zea mays, 15° C., 60% Relative Humidity; for change in vivo at 250 µM: read-out: increase of the slope of the curve at Tso (uniformity of germination) compared to untreated control; for percent reduction of T50 germination time vs untreated control at 250 µM: read-out: reduction of the Tso value (time taken for 50% germination; speed of germination) in comparison with untreated control
Procedure: Method: Corn seeds (var. NK Falkone, Syngenta Seeds SAS, St. Sauveur, France) were sorted by size using a sieve to eliminate round seeds. The corn seeds were placed in 24 well plates (1 seed per well, each plate was considered as one experimental unit or replicate). Germination was initiated by the addition of 250 μL of distilled water containing 0.5% DMSO per well (and the tested the substance at the given concentration). 8 replicates (i.e., 8 plates) were used for each treatment characterization. Plates were sealed using seal foil (Polyolefin Art. Nr. 900320) from HJ-BIOANALYTIK. All plates were placed in a climatic chamber at 15° C. with 60% Relative Humidity. The experiment was laid out in a completely randomized design.
Germination was followed over time by taking photographs at different time points. Image analysis was performed automatically with a macro which was developed using the Image J software. A kinetic analysis of germination was carried out by fitting a trend curve. Three parameters were calculated from the trend curve: the Tso (time taken for 50% germination; speed of germination); the slope of the curve (the uniformity of germination) and the plateau (the total percentage of germinated seeds).
The treatments with a given compound were performed at 4 concentrations 2, 10, 50, and 250 μM.

IC50 [1]	Structure (SMILES)	change in vivo at 250 µM [2]	percent reduction of T50 germination time vs untreated control at 250 µM [2]
< 3000 nM	COC(=O)C(/C=C/C1CCC(F)(F)CC1)=C/OC1C=C(C)C(=O)O1 (centres unmarked) [Compound P-2, methyl (E,2E)-4-(4,4-difluorocyclohexyl)-2-[(4-methyl-5-oxo-2H-furan-2-yl)oxymethylene]but-3-enoate]	> 50%	> 5%
–	COC(=O)C(/C=C/C1CCCCC1)=C/OC1OC(=O)C(C)=C1C (centres unmarked) [Compound P-3, methyl (E,2E)-4-cyclohexyl-2-[(3,4-dimethyl-5-oxo-2H-furan-2-yl)oxymethylene]but-3-enoate]	> 50%	> 5%
< 3000 nM	COC(=O)C(/C=C/C12CC3CC(CC(C3)C1)C2)=C/OC1C=C(C)C(=O)O1 (centres unmarked) [Compound P-4, methyl (E,2E)-4-(1-adamantyl)-2-[(4-methyl-5-oxo-2H-furan-2-yl)oxymethylene]but-3-enoate]	–	> 5%
< 3000 nM	COC(=O)C(/C=C/C1(C)CCCC1)=C/OC1C=C(C)C(=O)O1 (centres unmarked) [Compound P-6, methyl (E,2E)-4-(1-methylcyclopentyl)-2-[(4-methyl-5-oxo-2H-furan-2-yl)oxymethylene]but-3-enoate]	> 50%	> 5%
< 3000 nM	COC(=O)C(/C=C/C1(C)CC1)=C/OC1C=C(C)C(=O)O1 (centres unmarked) [Compound P-7, methyl (E,2E)-4-(1-methylcyclopropyl)-2-[(4-methyl-5-oxo-2H-furan-2-yl)oxymethylene]but-3-enoate]	–	–
< 3000 nM	COC(=O)/C=C/C(=C\OC1C=C(C)C(=O)O1)C(=O)OC (centres unmarked) [Compound P-8, dimethyl (E,4E)-4-[(4-methyl-5-oxo-2H-furan-2-yl)oxymethylene]pent-2-enedioate]	> 50%	> 5%
–	COC(=O)/C(C=C(C)C)=C/OC1C=C(C)C(=O)O1 (centres unmarked) [Compound P-9, methyl (2E)-4-methyl-2-[(4-methyl-5-oxo-2H-furan-2-yl)oxymethylene]pent-3-enoate]	> 50%	> 5%
–	COC(=O)C(/C=C/C(C)(C)C)=C/OC1OC(=O)C(C)=C1C (centres unmarked) [Compound P-10, methyl (E,2E)-2-[(3,4-dimethyl-5-oxo-2H-furan-2-yl)oxymethylene]-5,5-dimethyl-hex-3-enoate]	> 50%	> 5%
< 3000 nM	COC(=O)C(/C=C/C(C)(C)OC)=C/OC1C=C(C)C(=O)O1 (centres unmarked) [Compound P-12, methyl (E,2E)-5-methoxy-5-methyl-2-[(4-methyl-5-oxo-2H-furan-2-yl)oxymethylene]hex-3-enoate]	> 50%	–
< 3000 nM	C=C(C)C1(/C=C/C(=C\OC2C=C(C)C(=O)O2)C(=O)OC)C(=O)CC1(C)C (centres unmarked) [Compound P-15, methyl (E,2E)-4-(1-isopropenyl-2,2-dimethyl-4-oxo-cyclobutyl)-2-[(4-methyl-5-oxo-2H-furan-2-yl)oxymethylene]but-3-enoate]	> 50%	> 5%
< 3000 nM	COC(=O)C(/C=C/C(C)(C)C#N)=C/OC1C=C(C)C(=O)O1 (centres unmarked) [Compound P-16, methyl (E,2E)-5-cyano-5-methyl-2-[(4-methyl-5-oxo-2H-furan-2-yl)oxymethylene]hex-3-enoate]	–	–
< 3000 nM	COC(=O)C(/C=C/C(C)(C)N(C)C(C)=O)=C/OC1C=C(C)C(=O)O1 (centres unmarked) [Compound P-17, methyl (E,2E)-5-[acetyl(methyl)amino]-5-methyl-2-[(4-methyl-5-oxo-2H-furan-2-yl)oxymethylene]hex-3-enoate]	–	–
< 3000 nM	COC(=O)C(/C=C/C(C)(C)C(=O)OC)=C/OC1C=C(C)C(=O)O1 (centres unmarked) [Compound P-19, dimethyl (E,5E)-2,2-dimethyl-5-[(4-methyl-5-oxo-2H-furan-2-yl)oxymethylene]hex-3-enedioate]	> 50%	> 5%
< 3000 nM	COC(=O)C(/C=C/C(C)(C)C(=O)N(C)C)=C/OC1C=C(C)C(=O)O1 (centres unmarked) [Compound P-20, methyl (E,2E)-6-(dimethylamino)-5,5-dimethyl-2-[(4-methyl-5-oxo-2H-furan-2-yl)oxymethylene]-6-oxo-hex-3-enoate]	–	–
